For orientation: CC50 means the concentration at which the toxic effect on the cells reaches its halfway point. As a reminder, the IC50 is the concentration that gives 50% inhibition. The EC50 is the midpoint of the concentration-response curve.

This note sets out measurements from ChEMBL document CHEMBL5528001, “Synthetic product-based approach toward potential antileishmanial drug development” (Eur J Med Chem, 2024).

A short description of data set [1]: Cytotoxicity against human THP-1 cells assessed as reduction in cell growth incubated for 3 days by resazurin dye based analysis. The data set is classed as toxicity. The settings on record: time 3 day. On the technique in general: The colour change of resazurin is a common sign of viable cells or microbes.
Data set [2] is described as follows: Cytotoxicity against HEK293 cells assessed as reduction in cell growth incubated for 3 days by resazurin dye based analysis. The data set is classed as toxicity. The note with it: human, time 3 day.
The subject of data set [3] is Leishmania tropica. Nature of the data set: Antileishmanial activity against Leishmania tropica promastigotes incubated for 24 hrs measured by alamar blue staining based fluorescence analysis. In kind it is functional, organism-based.
Data set [4] concerns Leishmania infantum. In words: Antileishmanial activity against Leishmania infantum MCAN/ES/89/IPZ229/1/89 axenic amastigotes assessed as reduction in parasite growth treated for 24 hrs by PI staining based flow cytometry. The data set is classed as functional, organism-based. The note with it: MCAN/ES/89/IPZ229/1/89, 24 h. A general note: A flow cytometer gives signals particle by particle.

A short description of data set [5]: Selectivity index, ratio of CC50 for human HepG2 cells to EC50 for GFP-expressing Leishmania infantum intracellular amastigotes infected in human THP-1 derived macrophage cells. The data set is classed as toxicity, cell-based. The note with it: read-out: Ratio CC50/EC50.
Data set [6] relates to Leishmania donovani. In words: Antileishmanial activity against Leishmania donovani MHOM/SD/62/1S amastigotes assessed as reduction in cell growth. The data set is classed as functional, organism-based.
The nature of data set [7]: Cytotoxicity against African green monkey Vero cells assessed as reduction in cell viability measured after 96 hrs by MTS assay. In kind it is toxicity, cell-based, Chlorocebus sabaeus. (In general: Formazan colour is commonly taken as a measure of viable cells.)
Data set [8] has as its system Leishmania donovani. Nature of the data set: Antileishmanial activity against Leishmania donovani MHOM/IN/95/9515 promastigotes assessed as inhibition of parasite proliferation measured for 48 hrs by resazurin dye-based analysis relative to control. The data set is classed as functional. More on the design: scale not given: the % may be the effect or the level left.

The test system of data set [9] is Leishmania donovani. In words: Antileishmanial activity against Leishmania donovani 9515 promastigotes assessed as inhibition of parasite growth incubated for 48 hrs by resazurin dye based assay. The settings on record: Leishmania donovani, 9515, 48 h. In kind it is functional, organism-based.
Data set [10] relates to Leishmania donovani. In words: Antileishmanial activity against Leishmania donovani promastigotes MHOM/SD/62/1S assessed as inhibition of cell growth measured after 48 hrs by resazurin dye based assay. The data set is classed as functional, organism-based.
For data set [11], the system named is Leishmania donovani. Nature of the data set: Antileishmanial activity against Leishmania donovani amastigotes MHOM/SD/62/1S assessed as inhibition of cell growth measured after 48 hrs by resazurin dye based assay. The data set is classed as functional, organism-based.
Data set [12] deals with Leishmania donovani. Nature of the data set: Antileishmanial activity against Leishmania donovani 9515 amastigotes assessed as inhibition of parasite growth incubated for 48 hrs by resazurin dye based assay. In kind it is functional, organism-based. The settings on record: Leishmania donovani, 9515, 48 h.
Data set [13] is described as follows: Cytotoxicity against African green monkey Vero cells assessed as reduction in cell viability incubated for 72 hrs by MTT assay. The data set is classed as toxicity, cell-based, Chlorocebus sabaeus.
Data set [14] is described as follows: Cytotoxicity against human THP-1 cells assessed as inhibition of cell growth measured after 72 hrs by MTT assay. In kind it is toxicity, cell-based.
Data set [15] has as its system Leishmania donovani. Nature of the data set: Antileishmanial activity against Leishmania donovani MHOM/ET/67/HU3 promastigotes assessed as inhibition of parasite growth incubated for 72 hrs by MTT assay. The data set is classed as functional, organism-based. The note with it: MHOM/ET/67/HU3, 72 h.
The nature of data set [16]: Selectivity index, ratio of CC50 for cytotoxicity against mouse J774.A1 cells to IC50 for antileishmanial activity against Leishmania amazonensis axenic amastigote assessed as inhibition of parasite growth. In kind it is toxicity, cell-based. The settings on record: read-out: Ratio CC50/IC50.
The test system of data set [17] is Leishmania donovani. Nature of the data set: Antileishmanial activity against Leishmania donovani axenic amastigotes assessed as reduction in parasite growth measured after 24 hrs by PI staining based analysis. The data set is classed as functional, organism-based.
Data set [18] relates to Leishmania infantum. Nature of the data set: Antileishmanial activity against Leishmania infantum MHOM/MA/67/ITMAP263 axenic amastigotes assessed as reduction in parasite viability treated for 24 hrs by PI staining based flow cytometry. In kind it is functional, organism-based. The note with it: MHOM/MA/67/ITMAP263, 24 h.
In data set [19] the test system is Leishmania amazonensis. Nature of the data set: Antileishmanial activity against Leishmania amazonensis intracellular amastigotes assessed as parasite growth inhibition measured for 72 hrs by resazurin/alamar blue fluorometric assay. In kind it is functional, organism-based.
Data set [20] can be described thus: Selectivity index, ratio of CC50 for cytotoxicity against mouse BMDM cells to IC50 for antileishmanial activity against Leishmania amazonensis intracellular amastigotes. The data set is classed as toxicity, cell-based. The settings on record: read-out: Ratio CC50/IC50.
In data set [21] the test system is Leishmania infantum. Nature of the data set: Antiparasitic activity against Leishmania infantum amastigotes infected in human THP-1 cells assessed as reduction in parasitemia incubated for 72 hrs by high content imaging analysis. In kind it is functional, organism-based. The settings on record: THP-1, 72 h.
Data set [22] relates to Leishmania amazonensis. In words: Antileishmanial activity against Leishmania amazonensis MHOM/BR/71973/M2269 promastigotes assessed as reduction in parasite viability measured for 48 hrs PI staining based flow cytometry analysis. The settings on record: MHOM/BR/71973, 48 h. The data set is classed as functional, organism-based.
Data set [23] has as its system Leishmania infantum. In words: Antileishmanial activity against Leishmania infantum MHOM/BR/1972/BH46 promastigotes assessed as reduction in parasite viability measured for 48 hrs by PI staining based flow cytometry analysis. The data set is classed as functional, organism-based. The settings on record: MHOM/BR/1972/BH46, 48 h.
In data set [24] the test system is Leishmania infantum. In words: Antileishmanial activity against Leishmania infantum MHOM/BR/1972/BH46 amastigotes assessed as reduction in cell viability measured for 48 hrs by PI staining based flow cytometry analysis. The data set is classed as functional, organism-based. The note with it: MHOM/BR/1972/BH46, 48 h.
Data set [25] concerns HepG2. Nature of the data set: Antiproliferative activity against human HepG2 cells assessed as reduction in cell viability incubated for 72 hrs by MTT assay. The data set is classed as functional, cell-based. The note with it: HepG2, 72 h.
Data set [26] deals with HepG2. Nature of the data set: Cytotoxicity against human HepG2 cells assessed as reduction in cell growth incubated for 48 hrs by MTT assay. The data set is classed as functional, cell-based. The settings on record: HepG2, 48 h.
Data set [27] concerns Leishmania infantum. Nature of the data set: Antileishmanial activity against Leishmania infantum MCAN/ES/89/IPZ229/1/89 promastigotes assessed as reduction in parasite growth measured for 48 hrs by resazurin dye based analysis. The settings on record: MCAN/ES/89/IPZ229/1/89, 48 h. The data set is classed as functional, organism-based.
Data set [28] is described as follows: Cytotoxicity against primary peritoneal mouse macrophages cells assessed as reduction in cell growth measured after 24 hrs by colorimetric assay. In kind it is toxicity, cell-based, Macrophage.
Data set [29] deals with Leishmania major. In words: Antileishmanial activity against Leishmania major IR-173 promastigotes assessed as inhibition of parasite growth measured for 48 hrs by resazurin staining based analysis. The data set is classed as functional, organism-based. The settings on record: IR-173, 48 h.
The test system of data set [30] is Leishmania amazonensis. In words: Antileishmanial activity against Leishmania amazonensis WHOM/00LTB001 promastigotes assessed as reduction in parasite growth incubated for 72 hrs by resazurin staining based analysis. The data set is classed as functional, organism-based. The settings on record: WHOM/00LTB001, 72 h.
Data set [31] can be described thus: Cytotoxicity against mouse J774.A1 cells assessed as inhibition of cell growth measured for 72 hrs by MTT assay. In kind it is toxicity, cell-based.
Data set [32] relates to Leishmania infantum. In words: Antileishmanial activity against Leishmania infantum amastigotes infected in human THP-1 cells assessed as reduction in parasite growth incubated for 72 hrs by high content imaging analysis. The note with it: THP-1, 72 h. In kind it is functional, organism-based.
The subject of data set [33] is Leishmania braziliensis. Nature of the data set: Antileishmanial activity against Leishmania braziliensis promastigotes. In kind it is functional, organism-based.
Data set [34] relates to Leishmania major. In words: Antileishmanial activity against Leishmania major promastigotes. The data set is classed as functional, organism-based.
Data set [35] is described as follows: Cytotoxicity against African green monkey Vero cells assessed as reduction in cell growth. In kind it is toxicity, cell-based, Chlorocebus sabaeus.
Data set [36] has as its system Leishmania infantum. In words: Antileishmanial activity against Leishmania infantum MON-1 promastigotes assessed as reduction in parasite viability measured after 48 hrs by MTT assay. The data set is classed as functional, organism-based. The note with it: MON-1, 48 h.
The test system of data set [37] is HepG2. Nature of the data set: Antiproliferative activity against human HepG2 cells assessed as reduction in cell growth measured for 72 hrs by MTT assay. The settings on record: HepG2, 72 h. In kind it is functional, cell-based.
The test system of data set [38] is HepG2. Nature of the data set: Cytotoxicity against human HepG2 cells assessed as reduction in cell growth measured for 48 hrs by MTT assay. The data set is classed as functional.

As to `COc1cc(/C=C2/Oc3cc(O)ccc3C2=O)cc(OC)c1`, the values for the 50% cytotoxic concentration (CC50) at 72 h in data set [1] and in [2] were 96.9 µM and over 200 µM, respectively.
`Nc1ccnn1C(=O)C1CCC2(CC1)OOC1(O2)C2CC3CC(C2)CC1C3` (stereo not drawn): the 50% inhibitory concentration (IC50) in [3] and in data set [4] was 219 µM in each case. Further, the selectivity ratio in data set [5] is under 5.
In the case of `Cc1ccc2c(NCCCCCNC(=O)c3cccc(/C=C/C(=O)c4ccc(C)o4)c3)ccnc2c1`, the IC50 in data set [6] worked out at 0.46 µM.
For `O=C(Cn1cnc2cc(Cl)ccc2c1=O)n1cnc2cc(Cl)ccc2c1=O`, in data set [7], the IC50 at 96 h was found to be 0.03 µM. For the same compound, the Activity in data set [8] amounted to 29%.
For `O=[N+]([O-])c1ccc(/C=N\NS(=O)(=O)c2ccc(-c3ccccc3)cc2)o1`, the half-maximal inhibitory concentration (IC50) turned out to be 1.53 µM in data set [9], 1.45 µM in data set [10], 2.94 µM in [11] and 6.29 µM in [12]. Further, the 50% inhibitory concentration (IC50) at 72 h stood at 16.4 µM in data set [13] and 50.4 µM in data set [14].
As for `CC(=O)Oc1ccc(CN2CNC(=O)C=N2)cc1C1OC(c2cccc(Cl)c2)=NN1C(C)=O` (stereo not drawn), the IC50 is 8.98 µM in [15] and 6.05 µM in data set [17]. Moreover, in data set [16], the selectivity ratio was 2.4.
For `CCCCCCCCNCc1ccc2c(c1)C(=O)CC(C)(C)O2`, the results for the IC50 in [18] and in data set [19] were 25.3 µM and 24.6 µM, respectively. The selectivity ratio in data set [20] was found to be 1.6.
In the case of `Cn1c(=O)c2c(c3ccccc31)OC(C)(C)[C@H]1CC[C@@](C)(O)[C@H](Cl)[C@H]21`, the concentration for half-maximal inhibition (IC50) in [21] is over 6.25 µM.
With `C=CCc1cc(OC)c2oc(=O)c(C(=O)c3ccccc3)cc2c1`, the results for the IC50 in data set [22], in data set [23] and in data set [24] were 82 µM, 26.7 µM and 18 µM, respectively.
Take `Nc1nc2ccccc2c2ccccc12`: the figures for the EC50 in data set [25], in data set [26] and in data set [27] were under 30 µM, 3.07 µM and 12.6 µM, respectively.
As for `CCCCCCCCCCn1cc(CNCCNc2ccnc3cc(Cl)ccc23)nn1`, the CC50 at 24 h in [28] amounted to 18.2 µM. The half-maximal inhibitory concentration (IC50) in [29] was found to be 0.08 µM.
As for `CCc1ccc(NC(=S)N/N=C/c2c[nH]c3c(C)cc(Br)cc23)cc1`, the IC50 in data set [30] came out at 12.3 µM. Also, in [31], the CC50 at 72 h worked out at 53.2 µM.
On to `C/C(=N\Nc1nc(-c2ccc(Br)cc2)cs1)c1ccccn1`, for which the 50% inhibitory concentration (IC50) in [32] worked out at 0.43 µM.
Regarding `Cc1cc(OCCCCCNC(C)(C)C)cc2oc3cc(OCCCCCNC(C)(C)C)cc(O)c3c(=O)c12`, the IC50 in [33] was found to be 2.4 µM; in [34] it was 5.4 µM; in data set [35], 15.5 µM.
`CCOC(=O)c1cc2c([nH]c3ccccc32)c(-c2cc3ccccc3n3nnnc23)n1`: the half-maximal effective concentration (EC50) amounted to 3.36 µM in [36] and 10.2 µM in data set [37]. For the same compound, in data set [38], the CC50 was 27.9 µM.
